This note sets out measurements from ChEMBL document CHEMBL1201862, “PubChem BioAssay data set” (2004).

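Step 1: Grow cells in 96-well plates. Step 2: Expose to compound for 48 hours at 5 concentrations. Step 3: Interpolate endpoints linearly; if unreached, use highest concentration. GI50 = concentration required for 50% inhibition of growth.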 Activity calls are given as the source filed them. Rule as the data show it: active = GI50 up to about 1.1 µM and inactive = higher.

Test systems include T47D; M14; SNB-75; 786-0; CCRF-CEM; HL-60; MOLT-4; K562; MDA-MB-231; SK-MEL-5; IGROV-1; SF-295; LOX IMVI; HCC 2998; DU-145; MDA-N; HT-29; TK-10; UACC-257; UACC-62; PC-3; KM12; SK-MEL-28; SK-OV-3; SF-268; SN12C; NCI-H23; OVCAR-8; RPMI-8226; COLO 205; RXF 393; SR; Malme-3M; EKVX; A549; CAKI-1; MCF7; SW-620; HOP-62; HCT-15; SK-MEL-2; NCI-H522.
Test in all cases: NCI anticancer screen, dose series, 48 h

As to `CN1CCN(c2cc3nsnc3c3nsnc23)CC1`, the GI50 in the assay with T47D, in the assay with M14, in the assay with SNB-75, in the assay with 786-0, in the assay on CCRF-CEM and in the assay with HL-60 was > 10 µM (inactive) in each case. For the same compound, the GI50 in the assay with MOLT-4, in the assay on K562, with MDA-MB-231, with SK-MEL-5, in the assay with IGROV-1 and in the assay with SF-295 was > 10 µM (inactive) in each case. For the same compound, the GI50 in the assay with LOX IMVI, in the assay with HCC 2998, in the assay on DU-145, with MDA-N, in the assay on HT-29 and with TK-10 was > 10 µM (inactive) each time. For the same compound, the GI50 in the assay on UACC-257, with UACC-62, in the assay on PC-3, in the assay on KM12, in the assay with SK-MEL-28 and with SK-OV-3 was > 10 µM (inactive) throughout. Besides, the GI50 in the assay on SF-268, in the assay on SN12C, in the assay with NCI-H23, in the assay on OVCAR-8, in the assay on RPMI-8226 and with COLO 205 was > 10 µM (inactive) throughout. Also, the GI50 with RXF 393, in the assay on SR, in the assay with Malme-3M, with EKVX, with A549 and with CAKI-1 was > 10 µM (inactive) each time. In addition, the GI50 was > 10 µM (inactive) in the assay with MCF7, > 10 µM (inactive) in the assay on SW-620, > 10 µM (inactive) with HOP-62 and > 10 µM in the assay with HCT-15.
Take `CC(CN(C)C)Nc1c2ccccc2nc2cccc([N+](=O)[O-])c12` (stereo not drawn): the GI50 is < 0.01 µM (active) in the assay on SK-MEL-2, < 0.0153 µM (active) with NCI-H522 and < 0.01 µM (active) with RXF 393.
